Experimental data from patent US8394834B2, “Pyrrolidines as NK3 receptor antagonists” (Hoffman-La Roche Inc., priority 2009, dated 2013).

Legend:
[1] = molecular target: T1, recombinant human NK3 receptor (Homo sapiens, UniProt P29371); assay: [3H]SR142801 competition binding assay; conditions: hNK3 receptor, membranes from HEK293 cells transiently expressing the receptor, [3H]SR142801 radioligand
T1 construct: expressed in transfected cells; host or cells: HEK293 cells (transient expression), membranes
T1 sequence (P29371 1-465): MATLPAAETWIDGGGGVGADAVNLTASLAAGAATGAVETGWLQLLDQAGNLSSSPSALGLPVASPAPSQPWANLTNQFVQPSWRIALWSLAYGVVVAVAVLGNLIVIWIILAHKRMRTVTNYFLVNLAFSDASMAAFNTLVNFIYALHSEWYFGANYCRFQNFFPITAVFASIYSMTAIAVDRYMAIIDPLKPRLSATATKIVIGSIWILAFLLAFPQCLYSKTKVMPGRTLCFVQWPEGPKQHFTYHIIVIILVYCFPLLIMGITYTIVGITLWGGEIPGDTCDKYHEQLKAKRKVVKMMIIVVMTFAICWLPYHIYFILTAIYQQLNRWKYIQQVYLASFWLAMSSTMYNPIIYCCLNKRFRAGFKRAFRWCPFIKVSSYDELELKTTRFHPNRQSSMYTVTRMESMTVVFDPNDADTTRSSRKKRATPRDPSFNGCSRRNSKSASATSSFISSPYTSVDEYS
Experimental: [^3H]SR142801 Competition Binding Assay
hNK3 receptor binding experiment were performed using [^3H]SR142801 (Catalog No. TRK1035, specific activity: 74.0 Ci/mmol, Amersham, GE Healthcare UK limited, Buckinghamshire, UK) and membrane isolated from HEK293 cells transiently expressing recombinant human NK3 receptor. After thawing, the membrane homogenates were centrifuged at 48,000×g for 10 min at 4° C., the pellets were resuspended in the 50 mM Tris-HCl, 4 mM MnCl2, 1 μM phosphoramidon, 0.1% BSA binding buffer at pH 7.4 to a final assay concentration of 5 μg protein/well. For inhibition experiments, membranes were incubated with [^3H]SR142801 at a concentration equal to KD value of radioligand and 10 concentrations of the inhibitory compound (0.0003-10 μM) (in a total reaction volume of 500 μl) for 75 min at room temperature (RT). At the end of the incubation, membranes were filtered onto unitfilter (96-well white microplate with bonded GF/C filter preincubated 1 h in 0.3% PEI+0.3% BSA, Packard BioScience, Meriden, Conn.) with a Filtermate 196 harvester (Packard BioScience) and washed 4 times with ice-cold 50 mM Tris-HCl, pH 7.4 buffer. Nonspecific binding was measured in the presence of 10 μM SB222200 for both radioligands. The radioactivity on the filter was counted (5 min) on a Packard Top-count microplate scintillation counter with quenching correction after addition of 45 μl of microscint 40 (Can berra Packard S. A., Zürich, Switzerland) and shaking for 1 h. Inhibition curves were fitted according to the Hill equation: […]), where nH=slope factor using Excel-fit 4 software (Microsoft). IC50 values were derived from the inhibition curve and the affinity constant (Ki) values were calculated using the Cheng-Prussoff equation Ki=IC50/(1+[L]/KD) where [L] is the concentration of radioligand and KD is its dissociation constant at the receptor, derived from the saturation isotherm. All experiments were performed in duplicate and the mean±standard error (SEM) of the individual Ki values was calculated.

schizophrenia = conditions: phase II trial, cited from earlier work

| Compound | Ki [1] [nM] | activity on positive symptoms of schizophrenia (schizophrenia; altered behaviour, delusion, hallucinations, extreme emotions, excited motor activity, incoherent speech) | activity in the treatment of negative symptoms (schizophrenia; depression, anhedonia, social isolation or memory and attention deficits) |
| --- | --- | --- | --- |
| Cc1ccc(N2CCC(C(=O)N3C[C@H]([C@H](C)Oc4ccc(C#N)cn4)[C@@H](c4ccc(F)c(F)c4)C3)CC2)nn1 [Example 21, 6-((S)-1-{(3R,4S)-4-(3,4-Difluoro-phenyl)-1-[1-(6-methyl-pyridazin-3-yl)-piperidine-4-carbonyl]-pyrrolidin-3-yl}-ethoxy)-nicotinonitrile] | 2.8 | – | – |
| CC(=O)N(C)C1(c2ccccc2)CCN(CCC[C@]2(c3ccc(Cl)c(Cl)c3)CCCN(C(=O)c3ccccc3)C2)CC1 [SR 142,801, Osanetant] | – | active | inactive |
